Laboratory results from ChEMBL document CHEMBL1133821, “Synthesis and antiinflammatory, analgesic activity of 3,3'-(1,2-ethanediyl)-bis[2-aryl-4-thiazolidinone] chiral compounds. Part 10” (Bioorg Med Chem Lett, 2001).

Key:
Rattus norvegicus [1] = assay: Animals with Ulcers in Carrageenan-induced paw edema test at a dose of 100 mg/kg perorally in rats; format: functional; conditions: route oral
Rattus norvegicus [2] = assay: Percent Edema variation in Carrageenan-induced paw edema test at a dose of 100 mg/kg perorally in rats after 60 min; format: functional; conditions: route oral
Rattus norvegicus [3] = assay: Analgesic activity was determined using acetic acid writing test at a dose of 100 mg/kg perorally in rats.(p<0.01); format: functional; conditions: route oral
Rattus norvegicus [4] = assay: Percent Edema variation in Carrageenan-induced paw edema test at a dose of 100 mg/kg perorally in rats after 180 min; format: functional; conditions: route oral
Rattus norvegicus [5] = assay: Percent Edema variation in Carrageenan-induced paw edema test at a dose of 100 mg/kg perorally in rats after 120 min; format: functional; conditions: route oral
Rattus norvegicus [6] = assay: Reaction time in Hot plate test at a dose of 100 mg/kg perorally in rats after 120 min; format: functional; conditions: route oral
Rattus norvegicus [7] = assay: Number of writhings in Acetic acid Writhing test at a dose of 100 mg/kg perorally in rats; format: functional; conditions: route oral
Rattus norvegicus [8] = assay: Reaction time in Hot plate test at a dose of 100 mg/kg perorally in rats after 180 min; format: functional; conditions: route oral
[9] = Minimum concentration which causes 50% of the Artemia salina larvae to lose mobility; format: ADME, organism-based; conditions: in vivo
Rattus norvegicus [10] = assay: Animals with Hyperemia in Carrageenan-induced paw edema test at a dose of 100 mg/kg perorally in rats; format: functional; conditions: route oral
Rattus norvegicus [11] = assay: Reaction time in Hot plate test at a dose of 100 mg/kg perorally in rats after 60 min (p<0.05); format: functional; conditions: route oral
[12] = Peroral dose causing 50% death of the mice population; format: ADME, organism-based; conditions: mouse, in vivo, po
Rattus norvegicus [13] = assay: Reaction time in Hot plate test at a dose of 100 mg/kg perorally in rats after 120 min (p<0.05); format: functional; conditions: route oral
Rattus norvegicus [14] = assay: Reaction time in Hot plate test at a dose of 100 mg/kg perorally in rats after 180 min (p<0.05); format: functional; conditions: route oral
Rattus norvegicus [15] = assay: Percent Edema variation in Carrageenan-induced paw edema test at a dose of 100 mg/kg perorally in rats after 60 min (p<0.01); format: functional; conditions: route oral
Rattus norvegicus [16] = assay: Percent Edema variation in Carrageenan-induced paw edema test at a dose of 100 mg/kg perorally in rats after 180 min (p<0.001); format: functional; conditions: route oral
Rattus norvegicus [17] = assay: Analgesic activity was determined using acetic acid writing test at a dose of 100 mg/kg perorally in rats.(p<0.05); format: functional; conditions: route oral
Rattus norvegicus [18] = assay: Reaction time in Hot plate test at a dose of 100 mg/kg perorally in rats after 60 min; format: functional; conditions: route oral
[19] = Animals with Hyperemia in Carrageenan-induced paw edema test at a dose of 50 mg/kg perorally in rats; format: functional; conditions: route oral
[20] = Animals with Hyperemia in Carrageenan-induced paw edema test at a dose of 25 mg/kg perorally in rats; format: functional; conditions: route oral
[21] = Animals with Ulcers in Carrageenan-induced paw edema test at a dose of 25 mg/kg perorally in rats; format: functional; conditions: route oral
[22] = Animals with Ulcers in Carrageenan-induced paw edema test at a dose of 50 mg/kg perorally in rats; format: functional; conditions: route oral
Rattus norvegicus [23] = assay: Percent Edema variation in Carrageenan-induced paw edema test at a dose of 50 mg/kg perorally in rats after 120 min (p<0.01); format: functional; conditions: route oral
Rattus norvegicus [24] = assay: Reaction time in Hot plate test at a dose of 100 mg/kg perorally in rats after 120 min (p<0.01); format: functional; conditions: route oral
Rattus norvegicus [25] = assay: Percent Edema variation in Carrageenan-induced paw edema test at a dose of 100 mg/kg perorally in rats after 180 min (p<0.01); format: functional; conditions: route oral
Rattus norvegicus [26] = assay: Percent Edema variation in Carrageenan-induced paw edema test at a dose of 25 mg/kg perorally in rats after 60 min (p<0.01); format: functional; conditions: route oral
Rattus norvegicus [27] = assay: Percent Edema variation in Carrageenan-induced paw edema test at a dose of 50 mg/kg perorally in rats after 60 min (p<0.01); format: functional; conditions: route oral
Rattus norvegicus [28] = assay: Analgesic activity was determined using acetic acid writing test at a dose of 100 mg/kg perorally in rats. (p<0.01); format: functional; conditions: route oral
Rattus norvegicus [29] = assay: Reaction time in Hot plate test at a dose of 100 mg/kg perorally in rats after 60 min (p<0.01); format: functional; conditions: route oral
Rattus norvegicus [30] = assay: Reaction time in Hot plate test at a dose of 100 mg/kg perorally in rats after 180 min (p<0.001); format: functional; conditions: route oral
Rattus norvegicus [31] = assay: Percent Edema variation in Carrageenan-induced paw edema test at a dose of 25 mg/kg perorally in rats after 120 min (p<0.01); format: functional; conditions: route oral
Rattus norvegicus [32] = assay: Percent Edema variation in Carrageenan-induced paw edema test at a dose of 100 mg/kg perorally in rats after 120 min (p<0.001); format: functional; conditions: route oral
Rattus norvegicus [33] = assay: Percent Edema variation in Carrageenan-induced paw edema test at a dose of 50 mg/kg perorally in rats after 180 min (p<0.01); format: functional; conditions: route oral
Rattus norvegicus [34] = assay: Percent Edema variation in Carrageenan-induced paw edema test at a dose of 25 mg/kg perorally in rats after 180 min (p<0.01); format: functional; conditions: route oral
Rattus norvegicus [35] = assay: Percent Edema variation in Carrageenan-induced paw edema test at a dose of 100 mg/kg perorally in rats after 60 min (p<0.001); format: functional; conditions: route oral
Rattus norvegicus [36] = assay: Analgesic activity was determined using acetic acid writing test at a dose of 100 mg/kg perorally in rats.; format: functional; conditions: route oral

SMILES | Animals (Rattus norvegicus [1]) | Edema variation (Rattus norvegicus [2]) | Edema variation (Rattus norvegicus [4]) | Edema variation (Rattus norvegicus [5]) | No. of writhings (Rattus norvegicus [7]) | LC50 [9] | Animals (Rattus norvegicus [10]) | Reaction time (Rattus norvegicus [11]) | LD50 [12] | other results
COc1ccc([C@H]2SCC(=O)N2CCN2C(=O)CS[C@H]2c2ccc(OC)c(F)c2)cc1F | 40% | 22.13% | 30.11% | 25.12% | 10.2 | > 1000 µg/mL | 20% | 16.1 s | > 1000 mg/kg | inhibition in vivo at 100 mg/kg (Rattus norvegicus [3]): 50%; Reaction time (Rattus norvegicus [6]): 12.3 s; Reaction time (Rattus norvegicus [8]): 12.5 s
O=C1CS[C@H](c2ccc(Cl)c(Cl)c2)N1CCN1C(=O)CS[C@H]1c1ccc(Cl)c(Cl)c1 | 0% | -61.12% | -61.2% | -61.1% | 4.6 | > 1000 µg/mL | 40% | 18.7 s | > 1000 mg/kg | Reaction time (Rattus norvegicus [13]): 22.5 s; inhibition in vivo at 100 mg/kg (Rattus norvegicus [3]): 77%; Reaction time (Rattus norvegicus [14]): 22.9 s
O=C1CSC(c2cccc([N+](=O)[O-])c2)N1CCN1C(=O)CSC1c1cccc([N+](=O)[O-])c1 (centres undefined) | 0% |  | 23.43% | -0.31% |  | > 1000 µg/mL | 40% |  | > 1000 mg/kg | Edema variation (Rattus norvegicus [15]): -35.52%
COc1ccc(C2SCC(=O)N2CCN2C(=O)CSC2c2ccc(OC)cc2)cc1 (centres undefined) | 0% | 39.52% |  | -26.62% | 15.8 | > 1000 µg/mL | 20% |  | > 1000 mg/kg | Reaction time (Rattus norvegicus [6]): 15.1 s; Edema variation (Rattus norvegicus [16]): -64.98%; Reaction time (Rattus norvegicus [8]): 13.9 s; inhibition in vivo at 100 mg/kg (Rattus norvegicus [17]): 22%; Reaction time (Rattus norvegicus [18]): 11.2 s
COc1ccc([C@H]2SCC(=O)N2CCN2C(=O)CS[C@H]2c2ccc(OC)c(OC)c2)cc1OC | 0% |  |  |  | 10 | > 1000 µg/mL | 20% |  | > 1000 mg/kg | Animals [19]: 20%; Animals [20]: 20%; Animals [21]: 0%; Animals [22]: 0%; Edema variation (Rattus norvegicus [23]): -59.49%; Reaction time (Rattus norvegicus [24]): 26.8 s; Edema variation (Rattus norvegicus [25]): -58.01%; Edema variation (Rattus norvegicus [26]): -38.33%; Edema variation (Rattus norvegicus [27]): -53.62%; inhibition in vivo at 100 mg/kg (Rattus norvegicus [28]): 51%; Reaction time (Rattus norvegicus [29]): 26.6 s; Edema variation (Rattus norvegicus [15]): -58.28%; Reaction time (Rattus norvegicus [30]): 36.4 s; Edema variation (Rattus norvegicus [31]): -53.28%; Edema variation (Rattus norvegicus [32]): -62.33%; Edema variation (Rattus norvegicus [33]): -44.26%; Edema variation (Rattus norvegicus [34]): -40.09%
O=C1CS[C@H](c2cccc([N+](=O)[O-])c2)N1CCN1C(=O)CS[C@H]1c1cccc([N+](=O)[O-])c1 | 0% |  |  |  | 17.8 | > 1000 µg/mL | 40% | 17.1 s | > 1000 mg/kg | Reaction time (Rattus norvegicus [13]): 19.4 s; Reaction time (Rattus norvegicus [14]): 22 s; Edema variation (Rattus norvegicus [35]): -83.3%; Edema variation (Rattus norvegicus [16]): 21.11%; inhibition in vivo at 100 mg/kg (Rattus norvegicus [36]): 13%; Edema variation (Rattus norvegicus [32]): -67.3%
Cc1cccc(C2SCC(=O)N2CCN2C(=O)CSC2c2cccc(C)c2)c1 (centres undefined) | 0% | 43.41% | -23.6% | -0.13% |  | > 1000 µg/mL | 20% |  | > 1000 mg/kg | 
